From publication PMC11221864, “FRAX486, a PAK inhibitor, overcomes ABCB1-mediated multidrug resistance in breast cancer cells” (Brazilian Journal of Medical and Biological Research, 2024)

Target: T1, ABCB1 (Homo sapiens, UniProt P08183)
T1 construct: ABCB1 in membrane vesicles from High Five insect cells
Test: vanadate-sensitive ATPase assay in membrane vesicles
Assay type: biochemical

T1 sequence (P08183 whole entry): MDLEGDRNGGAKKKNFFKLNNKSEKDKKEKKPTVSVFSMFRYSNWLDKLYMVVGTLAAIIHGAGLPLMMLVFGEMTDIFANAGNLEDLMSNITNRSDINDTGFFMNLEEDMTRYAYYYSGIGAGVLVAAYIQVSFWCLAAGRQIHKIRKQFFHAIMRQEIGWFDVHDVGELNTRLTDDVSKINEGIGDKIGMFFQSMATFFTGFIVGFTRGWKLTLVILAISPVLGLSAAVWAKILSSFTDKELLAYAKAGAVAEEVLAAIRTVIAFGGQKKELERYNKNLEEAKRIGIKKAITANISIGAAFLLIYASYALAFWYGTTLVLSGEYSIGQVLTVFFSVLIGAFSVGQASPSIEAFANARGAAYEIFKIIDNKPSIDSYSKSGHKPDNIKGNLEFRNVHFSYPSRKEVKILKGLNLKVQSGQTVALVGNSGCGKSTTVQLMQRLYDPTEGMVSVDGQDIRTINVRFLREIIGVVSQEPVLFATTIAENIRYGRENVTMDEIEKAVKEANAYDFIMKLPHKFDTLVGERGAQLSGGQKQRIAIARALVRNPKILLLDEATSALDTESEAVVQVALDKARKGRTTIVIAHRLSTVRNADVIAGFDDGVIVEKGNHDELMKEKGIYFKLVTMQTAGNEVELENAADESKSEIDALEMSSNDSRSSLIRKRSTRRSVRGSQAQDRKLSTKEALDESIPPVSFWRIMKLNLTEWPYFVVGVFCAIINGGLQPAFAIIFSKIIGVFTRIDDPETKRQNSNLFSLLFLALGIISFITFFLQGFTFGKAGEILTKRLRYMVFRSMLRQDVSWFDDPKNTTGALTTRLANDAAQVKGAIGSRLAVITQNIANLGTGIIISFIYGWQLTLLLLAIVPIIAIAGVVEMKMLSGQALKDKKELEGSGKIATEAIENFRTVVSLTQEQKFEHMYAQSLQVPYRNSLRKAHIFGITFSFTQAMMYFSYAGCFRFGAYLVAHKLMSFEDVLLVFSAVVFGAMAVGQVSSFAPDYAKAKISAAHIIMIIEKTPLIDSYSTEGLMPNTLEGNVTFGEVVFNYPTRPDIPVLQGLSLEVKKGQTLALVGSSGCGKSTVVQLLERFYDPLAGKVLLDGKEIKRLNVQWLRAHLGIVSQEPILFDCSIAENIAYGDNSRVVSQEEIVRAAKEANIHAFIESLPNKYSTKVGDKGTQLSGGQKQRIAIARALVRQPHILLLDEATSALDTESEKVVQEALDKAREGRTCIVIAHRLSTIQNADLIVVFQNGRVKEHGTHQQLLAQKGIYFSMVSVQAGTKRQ

Compound: CCn1c(=O)c(-c2ccc(Cl)cc2Cl)cc2cnc(Nc3ccc(N4CCNCC4)c(F)c3)nc21 [FRAX486]
- IC50: 20 nM
